# Earlier results in patent publication US20230059204A1, “T[…]-DOSING […] OF PHARMACEUTICAL AGENTS” (PIKE THERAPEUTICS, INC., priority 2021, published 2023).
# Test system: serotonin receptors in the brain
# Conditions: once ingested
structure (smiles),measurement,value
"CN(C)CCc1c[nH]c2cccc(OP(=O)(O)O)c12 [psilocybin, [3-(2-dimethylaminoethyl)-1H-indol-4-yl] dihydrogen phosphate]",duration of mind-altering effects,two to six
